Data on 1 molecule can be found in US11857635B2, “Linker compound, polyethylene glycol-linker conjugate and derivative thereof and polyethylene glycol-linker-drug conjugate” (JENKEM TECHNOLOGY CO., LTD. (TIANJIN), priority 2017, dated 2024).

The subject of the assay is HCT116 tumor. In words: Tumor growth inhibition in HCT116 tumor heterotopic transplantation mouse model. The following applies: HCT116 subcutaneous tumor in mice, FIG. 6. It is filed as in vivo. As to the method: The experiment was carried out to detect a tumor growth inhibition effect of a drug on the HCT116 tumor heterotopic transplantation mouse model.
G2: positive drug adriamycin (commercially available); and
G3: 4arm PEG-L5-Dox (prepared in Example 22).
An original culture solution was removed by suction after HCT116 cells (commercially available) were received, and 10 mL of fresh culture solution was added. The cells were collected and passaged when 90% of the cells were converged. After the culture solution was removed, 10 ml of EDTA/PBS solution was added and placed at room temperature for 5 minutes, and then the EDTA/PBS solution was removed by suction. […] The cells was counted with a counting plate and diluted with DMEM containing 10% FBS. […]
The cell suspension was changed in advance when it was detected that 80% of the cells were converged on the inoculation day of the cells. […] The cells were counted with a counting plate and diluted with PBS to a concentration of 2*10^7 cells/mL, and then the cells were placed on ice until inoculation.
HCT116 cells were subcutaneously inoculated in a right front axilla of a mouse. […] Tumor volumes were measured twice a week after inoculation, and when an average tumor volume reached 100 to 200 mm^3, 18 mice with similar tumor sizes were selected and randomly divided into 3 groups with 6 mice in each group. […]

Structures are written as SMILES.

Turning to `COc1cccc2c1C(=O)c1c(O)c3c(c(O)c1C2=O)C[C@@](O)(C(=O)CO)C[C@@H]3O[C@H]1C[C@H](N)[C@H](O)[C@H](C)O1` [adriamycin], the Anti-tumor effect entry is “obvious anti-tumor effects”.
